Measured values: ChEMBL document CHEMBL5137031, “The structure-based design of peptidomimetic inhibitors against SARS-CoV-2 3C like protease as Potent anti-viral drug candidate” (Eur J Med Chem, 2022)
pEC50, pIC50: −log10 of the molar value.

Legend:
[1] = target: Replicase polyprotein 1ab (Severe acute respiratory syndrome coronavirus 2, UniProt P0DTD1); assay: Inhibition of SARS-CoV-2 3CL protease expressed in Escherichia coli BL21 (DE3) cells assessed as change in relative fluorescence unit using MCA-TSAVLQSGFRK(DNP)M as substrate preincubated for 30 mins followed by substrate addition and measured after 2 hrs by microplate reader based FRET assay
[2] = system: A549; assay: Cytotoxicity against human A549 cells assessed as inhibition of cell growth measured after 24 hrs by MTT assay; format: toxicity, cell-based; conditions: a549, 24 h
[3] = system: SARS-CoV-2; assay: Antiviral activity against SARS-CoV-2 WIV04 infected in African green monkey Vero cells assessed as inhibition of viral proliferation measured at 24 hrs post infection by qRT-PCR analysis; format: functional, organism-based; conditions: Severe acute respiratory syndrome coronavirus 2, WIV04, Vero
[4] = system: SARS-CoV-2; assay: Antiviral activity against SARS-CoV-2 WIV04 infected in African green monkey Vero cells assessed as log reduction in viral RNA at 10 uM measured at 24 hrs post infection by qRT-PCR analysis; format: functional, Severe acute respiratory syndrome coronavirus 2
[5] = system: Vero; assay: Cytotoxicity against African green monkey Vero cells assessed as reduction in cell viability incubated for 48 hrs by CCK8 assay; format: toxicity, cell-based; conditions: chlorocebus sabaeus

SMILES | pIC50 [1] | Activity [2] | pEC50 [3] | log(activity) [4] | Activity [5]
CC(C)[C@H](NC(=O)/C=C/c1ccccc1)C(=O)N[C@H](C=O)C[C@@H]1CCCNC1=O | 5.16 | Non-Toxic | < 5.52 |  | 
CC(C)C[C@H](NC(=O)/C=C/c1ccccc1)C(=O)N[C@H](C=O)C[C@@H]1CCCNC1=O | 6.49 | Non-Toxic | 5.82 | 2 | Non-Toxic
O=C[C@H](C[C@@H]1CCNC1=O)NC(=O)[C@H](Cc1cccc(F)c1)NC(=O)c1cc2ccccc2[nH]1 | 6.07 | Non-Toxic | 6.44 |  | 
CC(C)C[C@H](NC(=O)[C@@H](NC(=O)c1cc2ccccc2[nH]1)C(C)C)C(=O)N[C@H](C=O)C[C@@H]1CCCNC1=O | 6.53 | Non-Toxic | < 5.52 |  | 
CCC[C@H](NC(=O)/C=C/c1ccccc1)C(=O)N[C@@H](CC(C)C)C(=O)N[C@H](C=O)C[C@@H]1CCCNC1=O | 6.27 | Non-Toxic | < 5.52 |  | 
CC(C)C[C@H](NC(=O)[C@@H](NC(=O)C1CCOCC1)C(C)C)C(=O)N[C@H](C=O)C[C@@H]1CCCNC1=O | 6.55 | Non-Toxic | < 5.52 |  | 
C#CC[C@H](NC(=O)/C=C/c1ccccc1)C(=O)N[C@H](C=O)C[C@@H]1CCCNC1=O | 5.48 | Non-Toxic | < 5.52 |  | 
CC(C)C[C@H](NC(=O)[C@H](CC1CCCCC1)NC(=O)/C=C/c1ccccc1)C(=O)N[C@H](C=O)C[C@@H]1CCCNC1=O | 5.82 | Non-Toxic | 5.78 | 2 | Non-Toxic
CC(C)C[C@H](NC(=O)[C@@H](NC(=O)c1ccco1)C(C)C)C(=O)N[C@H](C=O)C[C@@H]1CCCNC1=O | 6.63 | Non-Toxic | < 5.52 |  | 
Cc1ccc(/C=C/C(=O)N[C@H](C(=O)N[C@@H](CC(C)C)C(=O)N[C@H](C=O)C[C@@H]2CCCNC2=O)C(C)C)cc1 | 6.71 | Non-Toxic | < 5.52 |  | 
CC(C)C[C@H](NC(=O)[C@@H](NC(=O)C1CCCCC1)C(C)C)C(=O)N[C@H](C=O)C[C@@H]1CCCNC1=O | 5.85 | Non-Toxic | < 5.52 |  | 
CC(C)C[C@H](NC(=O)[C@@H](NC(=O)/C=C/c1ccc(-c2ccccc2)cc1)C(C)C)C(=O)N[C@H](C=O)C[C@@H]1CCCNC1=O | 6.53 | Non-Toxic | < 5.52 |  | 
CC(C)C[C@H](NC(=O)[C@@H](NC(=O)c1cccnc1)C(C)C)C(=O)N[C@H](C=O)C[C@@H]1CCCNC1=O | 6.19 | Non-Toxic | < 5.52 |  | 
C#CC[C@H](NC(=O)/C=C/c1ccccc1)C(=O)N[C@H](C=O)C[C@@H]1CCNC1=O | 5.41 | Non-Toxic | < 5.52 |  | 
CC(C)C[C@H](NC(=O)[C@@H](NC(=O)CCc1ccccc1)C(C)C)C(=O)N[C@H](C=O)C[C@@H]1CCCNC1=O | 6.70 | Non-Toxic | < 5.52 |  | 
CC(C)C[C@H](NC(=O)[C@@H](NC(=O)c1ccc(C(F)(F)F)cc1)C(C)C)C(=O)N[C@H](C=O)C[C@@H]1CCCNC1=O | 5.85 | Non-Toxic | < 5.52 |  | 
CC(C)(C)[C@H](NC(=O)/C=C/c1ccccc1)C(=O)N[C@H](C=O)C[C@@H]1CCCNC1=O | 5.46 | Non-Toxic | < 5.52 | 2 | 
CC(C)C[C@H](NC(=O)[C@@H](NC(=O)/C=C/c1ccccc1)C(C)C)C(=O)N[C@H](C=O)C[C@@H]1CCCNC1=O | 6.55 | Non-Toxic | < 5.52 |  | 
CC(C)C[C@H](NC(=O)[C@@H](NC(=O)c1ccc[nH]1)C(C)C)C(=O)N[C@H](C=O)C[C@@H]1CCCNC1=O | 6.76 | Non-Toxic | < 5.52 |  | 
O=C[C@H](C[C@@H]1CCCNC1=O)NC(=O)[C@@H](NC(=O)/C=C/c1ccccc1)c1ccccc1 | 5.69 | Non-Toxic | < 5.52 |  | 
CC(C)C[C@H](NC(=O)[C@@H](NC(=O)c1ccc(F)cc1)C(C)C)C(=O)N[C@H](C=O)C[C@@H]1CCCNC1=O | 6.71 | Non-Toxic | < 5.52 |  | 
CC(C)C[C@H](NC(=O)[C@@H](NC(=O)/C=C/c1ccc(N(C)C)cc1)C(C)C)C(=O)N[C@H](C=O)C[C@@H]1CCCNC1=O | 6.23 | Non-Toxic | < 5.52 |  | 

SMILES | pIC50 [1] | Activity [2] | pEC50 [3] | log(activity) [4] | Activity [5]
CC(C)C[C@H](NC(=O)[C@@H](NC(=O)/C=C/c1ccc(C(C)C)cc1)C(C)C)C(=O)N[C@H](C=O)C[C@@H]1CCCNC1=O | 6.64 | Non-Toxic | < 5.52 |  | 
CC[C@H](C)[C@H](NC(=O)/C=C/c1ccccc1)C(=O)N[C@@H](CC(C)C)C(=O)N[C@H](C=O)C[C@@H]1CCCNC1=O | 6.45 | Non-Toxic | < 5.52 |  | 
CC(C)C[C@H](NC(=O)[C@@H](NC(=O)c1ccccc1)C(C)C)C(=O)N[C@H](C=O)C[C@@H]1CCCNC1=O | 6.59 | Non-Toxic | < 5.52 |  | 
CC(C)C[C@H](NC(=O)[C@@H](NC(=O)c1ccc(-c2ccccc2)cc1)C(C)C)C(=O)N[C@H](C=O)C[C@@H]1CCCNC1=O | 6.39 | Non-Toxic | < 5.52 |  | 
CC(C)C[C@H](NC(=O)[C@@H](NC(=O)c1ccc(Cl)cc1)C(C)C)C(=O)N[C@H](C=O)C[C@@H]1CCCNC1=O | 6.83 | Non-Toxic | < 5.52 |  | 
CC(C)C[C@H](NC(=O)[C@@H](NC(=O)c1ccc2cc[nH]c2c1)C(C)C)C(=O)N[C@H](C=O)C[C@@H]1CCCNC1=O | 6.66 | Non-Toxic | < 5.52 |  | 
CC(C)C[C@H](NC(=O)/C=C/c1ccccc1)C(=O)N[C@H](C=O)C[C@@H]1CCNC1=O | 6.43 | Non-Toxic | 5.97 | 2 | Non-Toxic
CC(C)C[C@H](NC(=O)[C@@H](NC(=O)c1ccccn1)C(C)C)C(=O)N[C@H](C=O)C[C@@H]1CCCNC1=O | 6.25 | Non-Toxic | < 5.52 |  | 
CC(C)C[C@H](NC(=O)[C@@H](NC(=O)/C=C/c1ccccc1F)C(C)C)C(=O)N[C@H](C=O)C[C@@H]1CCCNC1=O | 6.76 | Non-Toxic | < 5.52 |  | 
CC(C)C[C@H](NC(=O)[C@@H](NC(=O)/C=C/c1cccc(F)c1)C(C)C)C(=O)N[C@H](C=O)C[C@@H]1CCCNC1=O | 6.59 | Non-Toxic | < 5.52 |  | 
O=C[C@H](C[C@@H]1CCCNC1=O)NC(=O)[C@H](CC1CC1)NC(=O)/C=C/c1ccccc1 | 6.53 | Non-Toxic | 5.95 |  | Non-Toxic
CC(C)C[C@H](NC(=O)[C@@H](NC(=O)c1ccoc1)C(C)C)C(=O)N[C@H](C=O)C[C@@H]1CCCNC1=O | 6.76 | Non-Toxic | < 5.52 |  | 
CCCC[C@H](NC(=O)/C=C/c1ccccc1)C(=O)N[C@H](C=O)C[C@@H]1CCNC1=O | 6.43 | Non-Toxic | 5.95 | 2 | Non-Toxic
CC(C)C[C@H](NC(=O)[C@@H](NC(=O)/C=C/c1ccc(F)cc1)C(C)C)C(=O)N[C@H](C=O)C[C@@H]1CCCNC1=O | 6.51 | Non-Toxic | < 5.52 |  | 
C[C@H](NC(=O)/C=C/c1ccccc1)C(=O)N[C@H](C=O)C[C@@H]1CCCNC1=O | 4.91 | Non-Toxic | < 5.52 |  | 
CC(C)C[C@H](NC(=O)[C@@H](NC(=O)c1ccc2ccccc2c1)C(C)C)C(=O)N[C@H](C=O)C[C@@H]1CCCNC1=O | 6.57 | Non-Toxic | 5.87 | 2 | Non-Toxic
CC(C)C[C@H](NC(=O)[C@@H](NC(=O)c1ccc([N+](=O)[O-])cc1)C(C)C)C(=O)N[C@H](C=O)C[C@@H]1CCCNC1=O | 6.68 | Non-Toxic | < 5.52 |  | 
CC(C)C[C@H](NC(=O)[C@@H](NC(=O)c1ccncc1)C(C)C)C(=O)N[C@H](C=O)C[C@@H]1CCCNC1=O | 6.82 | Non-Toxic | < 5.52 |  | 
CCCC[C@H](NC(=O)/C=C/c1ccccc1)C(=O)N[C@H](C=O)C[C@@H]1CCCNC1=O | 6.56 | Non-Toxic | < 5.52 |  | 
C=CC[C@H](NC(=O)/C=C/c1ccccc1)C(=O)N[C@H](C=O)C[C@@H]1CCCNC1=O | 5.87 | Non-Toxic | < 5.52 |  | 
COc1ccc(/C=C/C(=O)N[C@H](C(=O)N[C@@H](CC(C)C)C(=O)N[C@H](C=O)C[C@@H]2CCCNC2=O)C(C)C)cc1 | 6.60 | Non-Toxic | < 5.52 |  | 
